Data as given in ChEMBL document CHEMBL1146418, “A new flavone C-glycoside and antiplatelet and vasorelaxing flavones from Gentiana arisanensis” (J Nat Prod, 1997).

Key:
[1] = system: Platelet; assay: Inhibition of collagen-induced platelet aggregation in rabbit plasma at 300 uM preincubated 3 mins before addition of thrombin by turbidimetric method; type: functional, Oryctolagus cuniculus; parameters: scale not given: the % may be the effect or the level left
[2] = system: Platelet; assay: Inhibition of thrombin-induced platelet aggregation in rabbit plasma at 300 uM preincubated 3 mins before addition of thrombin by turbidimetric method; type: functional, Oryctolagus cuniculus; parameters: scale not given: the % may be the effect or the level left
[3] = system: Platelet; assay: Inhibition of platelet activating factor-induced platelet aggregation in rabbit plasma at 300 uM preincubated 3 mins before addition of thrombin by turbidimetric method; type: functional, Oryctolagus cuniculus; parameters: scale not given: the % may be the effect or the level left
[4] = system: Platelet; assay: Inhibition of arachidonic acid-induced platelet aggregation in rabbit plasma at 300 uM preincubated 3 mins before addition of thrombin by turbidimetric method; type: functional, Oryctolagus cuniculus; parameters: scale not given: the % may be the effect or the level left
[5] = system: Platelet; assay: Inhibition of collagen-induced platelet aggregation in rabbit plasma at 100 uM preincubated 3 mins before addition of thrombin by turbidimetric method; type: functional, Oryctolagus cuniculus; parameters: scale not given: the % may be the effect or the level left
[6] = system: Platelet; assay: Inhibition of arachidonic acid-induced platelet aggregation in rabbit plasma at 100 uM preincubated 3 mins before addition of thrombin by turbidimetric method; type: functional, Oryctolagus cuniculus; parameters: scale not given: the % may be the effect or the level left
[7] = system: Platelet; assay: Inhibition of arachidonic acid-induced platelet aggregation in rabbit plasma at 50 uM preincubated 3 mins before addition of thrombin by turbidimetric method; type: functional, Oryctolagus cuniculus; parameters: scale not given: the % may be the effect or the level left
[8] = system: Platelet; assay: Inhibition of collagen-induced platelet aggregation in rabbit plasma at 50 uM preincubated 3 mins before addition of thrombin by turbidimetric method; type: functional, Oryctolagus cuniculus; parameters: scale not given: the % may be the effect or the level left
[9] = system: Platelet; assay: Inhibition of platelet activating factor-induced platelet aggregation in rabbit plasma at 50 uM preincubated 3 mins before addition of thrombin by turbidimetric method; type: functional, Oryctolagus cuniculus; parameters: scale not given: the % may be the effect or the level left
[10] = system: Platelet; assay: Inhibition of thrombin-induced platelet aggregation in rabbit plasma at 50 uM preincubated 3 mins before addition of thrombin by turbidimetric method; type: functional, Oryctolagus cuniculus; parameters: scale not given: the % may be the effect or the level left
[11] = system: Aorta; assay: Inhibition of noradrenaline-induced Wistar rat thoracic aorta phasic contraction in high K+ medium at 150 uM pretreated 15 mins before addition of Ca2+ and K+ relative to control; type: functional; parameters: scale not given: the % may be the effect or the level left
[12] = system: Aorta; assay: Inhibition of Ca2+-induced Wistar rat thoracic aorta contraction at 150 uM in high K+ medium pretreated 15 mins before addition of Ca2+ and K+ relative to control; type: functional; parameters: scale not given: the % may be the effect or the level left
[13] = system: Aorta; assay: Inhibition of noradrenaline-induced Wistar rat thoracic aorta tonic contraction in high K+ medium at 150 uM pretreated 15 mins before addition of Ca2+ and K+ relative to control; type: functional; parameters: scale not given: the % may be the effect or the level left
[14] = system: Platelet; assay: Inhibition of arachidonic acid-induced platelet aggregation in rabbit plasma at 60 uM preincubated 3 mins before addition of thrombin by turbidimetric method; type: functional, Oryctolagus cuniculus; parameters: scale not given: the % may be the effect or the level left
[15] = system: Aorta; assay: Inhibition of Ca2+-induced Wistar rat thoracic aorta contraction at 30 uM in high K+ medium pretreated 15 mins before addition of Ca2+ and K+ relative to control; type: functional; parameters: scale not given: the % may be the effect or the level left
[16] = system: Aorta; assay: Inhibition of noradrenaline-induced Wistar rat thoracic aorta phasic contraction in high K+ medium pretreated 15 mins before addition of Ca2+ and K+ relative to control
[17] = system: Aorta; assay: Inhibition of noradrenaline-induced Wistar rat thoracic aorta phasic contraction in high K+ medium at 300 uM pretreated 15 mins before addition of Ca2+ and K+ relative to control; type: functional; parameters: scale not given: the % may be the effect or the level left
[18] = system: Aorta; assay: Inhibition of Ca2+-induced Wistar rat thoracic aorta contraction at 300 uM in high K+ medium pretreated 15 mins before addition of Ca2+ and K+ relative to control; type: functional; parameters: scale not given: the % may be the effect or the level left
[19] = system: Aorta; assay: Inhibition of noradrenaline-induced Wistar rat thoracic aorta tonic contraction in high K+ medium at 300 uM pretreated 15 mins before addition of Ca2+ and K+ relative to control; type: functional; parameters: scale not given: the % may be the effect or the level left
[20] = system: Aorta; assay: Inhibition of noradrenaline-induced Wistar rat thoracic aorta phasic contraction in high K+ medium at 90 uM pretreated 15 mins before addition of Ca2+ and K+ relative to control; type: functional; parameters: scale not given: the % may be the effect or the level left
[21] = system: Aorta; assay: Inhibition of noradrenaline-induced Wistar rat thoracic aorta tonic contraction in high K+ medium at 30 uM pretreated 15 mins before addition of Ca2+ and K+ relative to control; type: functional; parameters: scale not given: the % may be the effect or the level left
[22] = system: Aorta; assay: Inhibition of Ca2+-induced Wistar rat thoracic aorta contraction in high K+ medium pretreated 15 mins before addition of Ca2+ and K+
[23] = system: Aorta; assay: Inhibition of noradrenaline-induced Wistar rat thoracic aorta tonic contraction in high K+ medium at 9 uM pretreated 15 mins before addition of Ca2+ and K+ relative to control; type: functional; parameters: scale not given: the % may be the effect or the level left
[24] = system: Aorta; assay: Inhibition of noradrenaline-induced Wistar rat thoracic aorta tonic contraction in high K+ medium at 90 uM pretreated 15 mins before addition of Ca2+ and K+ relative to control; type: functional; parameters: scale not given: the % may be the effect or the level left
[25] = system: Aorta; assay: Inhibition of Ca2+-induced Wistar rat thoracic aorta contraction at 90 uM in high K+ medium pretreated 15 mins before addition of Ca2+ and K+ relative to control; type: functional; parameters: scale not given: the % may be the effect or the level left
[26] = system: Aorta; assay: Inhibition of noradrenaline-induced Wistar rat thoracic aorta phasic contraction in high K+ medium at 30 uM pretreated 15 mins before addition of Ca2+ and K+ relative to control; type: functional; parameters: scale not given: the % may be the effect or the level left
[27] = system: Aorta; assay: Inhibition of noradrenaline-induced Wistar rat thoracic aorta tonic contraction in high K+ medium pretreated 15 mins before addition of Ca2+ and K+ relative to control
[28] = system: Platelet; assay: Inhibition of arachidonic acid-induced platelet aggregation in rabbit plasma at 150 uM preincubated 3 mins before addition of thrombin by turbidimetric method; type: functional, Oryctolagus cuniculus; parameters: scale not given: the % may be the effect or the level left
[29] = system: Platelet; assay: Inhibition of arachidonic acid-induced platelet aggregation in rabbit plasma at 15 uM preincubated 3 mins before addition of thrombin by turbidimetric method; type: functional, Oryctolagus cuniculus; parameters: scale not given: the % may be the effect or the level left
[30] = system: Platelet; assay: Inhibition of arachidonic acid-induced platelet aggregation in rabbit plasma at 30 uM preincubated 3 mins before addition of thrombin by turbidimetric method; type: functional, Oryctolagus cuniculus; parameters: scale not given: the % may be the effect or the level left
[31] = system: Aorta; assay: Inhibition of noradrenaline-induced Wistar rat thoracic aorta phasic contraction in high K+ medium at 9 uM pretreated 15 mins before addition of Ca2+ and K+ relative to control; type: functional; parameters: scale not given: the % may be the effect or the level left
[32] = system: Platelet; assay: Inhibition of arachidonic acid-induced platelet aggregation in rabbit plasma preincubated 3 mins before addition of thrombin by turbidimetric method; settings: Oryctolagus cuniculus

SMILES: O=c1cc(-c2ccc(O)cc2)oc2cc(O)c([C@@H]3O[C@H](CO[C@@H]4O[C@H](CO)[C@@H](O)[C@H](O)[C@H]4O)[C@@H](O)[C@H](O)[C@H]3O)c(O)c12
- Activity [1]: 85.6%
- Activity [2]: 87.4%
- Activity [3]: 84.6%
- Activity [4]: 84.9%

SMILES: CC(=O)OC[C@H]1O[C@@H](OC[C@H]2O[C@@H](c3c(OC(C)=O)cc4oc(-c5ccc(OC(C)=O)c(OC(C)=O)c5)cc(=O)c4c3OC(C)=O)[C@H](OC(C)=O)[C@@H](OC(C)=O)[C@@H]2OC(C)=O)[C@H](OC(C)=O)[C@@H](OC(C)=O)[C@@H]1OC(C)=O
- Activity [5]: 80.5%
- Activity [6]: 79.9%

SMILES: O=c1cc(-c2ccc(O)c(O)c2)oc2cc(O)c([C@@H]3O[C@H](CO[C@@H]4O[C@H](CO)[C@@H](O)[C@H](O)[C@H]4O)[C@@H](O)[C@H](O)[C@H]3O)c(O)c12
- Activity [1]: 85.4%
- Activity [2]: 85.7%
- Activity [3]: 83.5%
- Activity [4]: 83.3%

SMILES: CC(=O)Oc1ccccc1C(=O)O [ASPIRIN]
- Activity [7]: 0%
- Activity [8]: 85.4%
- Activity [9]: 90.5%
- Activity [10]: 91.9%

SMILES: O=c1cc(-c2ccc(O)c(O)c2)oc2cc(O[C@@H]3O[C@H](CO)[C@@H](O)[C@H](O)[C@H]3O)cc(O)c12 [GALUTEOLIN]
- Activity [1]: 80.5%
- Activity [2]: 87%
- Activity [11]: 84.5%
- Activity [12]: 93.4%
- Activity [3]: 71.9%
- Activity [4]: 80.2%
- Activity [13]: 88.2%

SMILES: CC(=O)OC[C@H]1O[C@@H](c2c(OC(C)=O)cc3oc(-c4ccc(OC(C)=O)c(OC(C)=O)c4)cc(=O)c3c2OC(C)=O)[C@H](OC(C)=O)[C@@H](OC(C)=O)[C@@H]1OC(C)=O [ISOORIENTIN PERACETATE]
- Activity [1]: 68.6%
- Activity [2]: 79%
- Activity [3]: 74.7%
- Activity [4]: 72.4%

SMILES: O=c1cc(-c2ccc(O)c(O)c2)oc2cc(O)c([C@@H]3O[C@H](CO)[C@@H](O)[C@H](O)[C@H]3O)c(O)c12 [ISOORIENTIN]
- Activity [1]: 60.8%
- Activity [2]: 85.5%
- Activity [11]: 91.7%
- Activity [12]: 106%
- Activity [3]: 77.1%
- Activity [4]: 66.9%
- Activity [13]: 86.6%

SMILES: O=c1cc(-c2ccc(O)cc2)oc2cc(O)c([C@@H]3O[C@H](CO)[C@@H](O)[C@H](O)[C@H]3O)c(O)c12 [ISOVITEXIN]
- Activity [1]: 84.7%
- Activity [2]: 36.5%
- Activity [3]: 83.9%
- Activity [4]: 85.1%

SMILES: O=c1cc(-c2ccc(O)c(O)c2)oc2cc(O)cc(O)c12 [LUTEOLIN]
- Activity [1]: 2.8%
- Activity [14]: 20.5%
- Activity [15]: 69.5%
- IC50 [16]: 68 µM
- Activity [2]: 34.7%
- Activity [17]: 14.9%
- Activity [18]: 28.6%
- Activity [19]: 22.9%
- Activity [20]: 29.3%
- Activity [21]: 52.3%
- IC50 [22]: 156 µM
- Activity [23]: 99.2%
- Activity [24]: 32.6%
- Activity [25]: 49.9%
- Activity [26]: 64.7%
- IC50 [27]: 72 µM
- Activity [3]: 53%
- Activity [28]: 0%
- Activity [29]: 79.2%
- Activity [4]: 0%
- Activity [30]: 53%
- Activity [31]: 92.8%
- IC50 [32]: 43.5 µM
